Assay results from patent publication US20210403435A1, “HERBICIDAL COMPOUNDS” (SYNGENTA CROP PROTECTION AG, priority 2018, published 2021).

Experiments:
Test in all cases: Post-emergence efficacy, glasshouse, evaluated after 13 days
Assay type in all cases: in vivo
[1] = test system: Digitaria sanguinalis (DIGSA); conditions: post-emergence application, 500 g/Ha, evaluated after 13 days; for pest or weed control at 500 g/ha: Digitaria sanguinalis, 312 h, read-out: Control of weed species DIGSA (100=total damage to plant; 0=no damage to plant)
Procedure, shortened: (§1)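 Injury assessed 13 days after a post-emergence spray, 0 = no damage and 100 = total damage. Spray liquid: compound in acetone/IF50 (Emulsogen EL360, N-methylpyrrolidone, Dowanol DPM), diluted with 0.25% or 1% sodium lauryl ether sulphate plus 1% ammonium sulphate.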

[2] = test system: Ipomoea hederacea (IPOHE); conditions: post-emergence application, 500 g/Ha, evaluated after 13 days; for pest or weed control at 500 g/ha: Ipomoea hederacea, 312 h, read-out: Control of weed species IPOHE (100=total damage to plant; 0=no damage to plant)
Procedure, shortened: as §1

[3] = test system: Chenopodium album (CHEAL); conditions: post-emergence application, 500 g/Ha, evaluated after 13 days; for pest or weed control at 500 g/ha: Chenopodium album, 312 h, read-out: Control of weed species CHEAL (100=total damage to plant; 0=no damage to plant)
Procedure, shortened: as §1

[4] = test system: Setaria faberi (SETFA); conditions: post-emergence application, 500 g/Ha, evaluated after 13 days; for pest or weed control at 500 g/ha: Setaria faberi, 312 h, read-out: Control of weed species SETFA (100=total damage to plant; 0=no damage to plant)
Procedure, shortened: as §1

[5] = test system: Echinochloa crus-galli (ECHCG); conditions: post-emergence application, 500 g/Ha, evaluated after 13 days; for pest or weed control at 500 g/ha: Echinochloa crus-galli, 312 h, read-out: Control of weed species ECHCG (100=total damage to plant; 0=no damage to plant)
Procedure, shortened: as §1

[6] = test system: Amaranthus palmeri (AMAPA); conditions: post-emergence application, 500 g/Ha, evaluated after 13 days; for pest or weed control at 500 g/ha: Amaranthus palmeri, 312 h, read-out: Control of weed species AMAPA (100=total damage to plant; 0=no damage to plant)
Procedure, shortened: as §1

[7] = test system: Eleusine indica (ELEIN); conditions: post-emergence application, 500 g/Ha, evaluated after 13 days; for pest or weed control at 500 g/ha: Eleusine indica, 312 h, read-out: Control of weed species ELEIN (100=total damage to plant; 0=no damage to plant)
Procedure, shortened: as §1

[8] = test system: Euphorbia heterophylla (EPHHL); conditions: post-emergence application, 500 g/Ha, evaluated after 13 days; for pest or weed control at 500 g/ha: Euphorbia heterophylla, 312 h, read-out: Control of weed species EPHHL (100=total damage to plant; 0=no damage to plant)
Procedure, shortened: as §1

[9] = test system: Lolium perenne (LOLPE); conditions: post-emergence application, 500 g/Ha, evaluated after 13 days; for pest or weed control at 500 g/ha: Lolium perenne, 312 h, read-out: Control of weed species LOLPE (100=total damage to plant; 0=no damage to plant)
Procedure, shortened: as §1

Compound	pest or weed control at 500 g/ha [1]	pest or weed control at 500 g/ha [2]	pest or weed control at 500 g/ha [3]	pest or weed control at 500 g/ha [4]	pest or weed control at 500 g/ha [5]	pest or weed control at 500 g/ha [6]	pest or weed control at 500 g/ha [7]	pest or weed control at 500 g/ha [8]	pest or weed control at 500 g/ha [9]	Control of weed species DIGSA (100=total damage to plant; 0=no damage to plant) [1]	Control of weed species IPOHE (100=total damage to plant; 0=no damage to plant) [2]	Control of weed species CHEAL (100=total damage to plant; 0=no damage to plant) [3]	Control of weed species SETFA (100=total damage to plant; 0=no damage to plant) [4]	Control of weed species ECHCG (100=total damage to plant; 0=no damage to plant) [5]	Control of weed species AMAPA (100=total damage to plant; 0=no damage to plant) [6]	Control of weed species ELEIN (100=total damage to plant; 0=no damage to plant) [7]	Control of weed species EPHHL (100=total damage to plant; 0=no damage to plant) [8]	Control of weed species LOLPE (100=total damage to plant; 0=no damage to plant) [9]
CCCCNC(=O)c1cc[n+](CCS(=O)(=O)[O-])nc1 [Compound A50]	60%	60%	70%	60%	40%	60%	10%	40%	20%	–	–	–	–	–	–	–	–	–
COCCNC(=O)c1cc[n+](CCC(=O)O)nc1 [Compound A40]	100%	60%	90%	100%	90%	100%	100%	100%	70%	–	–	–	–	–	–	–	–	–
CNC(=O)c1cc[n+](CCS(=O)(=O)[O-])nc1 [Compound A1, 2-[4-(methylcarbamoyl)pyridazin-1-ium-1-yl]ethanesulfonate]	90%	60%	70%	80%	60%	100%	70%	70%	80%	–	–	–	–	–	–	–	–	–
CC(CO)NC(=O)c1cc[n+](CCC(=O)O)nc1 (stereo not drawn) [Compound A123]	100%	50%	90%	100%	90%	100%	100%	90%	50%	–	–	–	–	–	–	–	–	–
O=C(NC1CC1)c1cc[n+](CCCOS(=O)(=O)[O-])nc1 [Compound A126]	40%	50%	60%	70%	60%	10%	40%	60%	50%	–	–	–	–	–	–	–	–	–
CCSCCNC(=O)c1cc[n+](CCC(=O)O)nc1 [Compound A120]	100%	10%	80%	70%	50%	100%	50%	90%	40%	–	–	–	–	–	–	–	–	–
O=C(O)CC[n+]1ccc(C(=O)N2CCSCC2)cn1 [Compound A112]	100%	50%	90%	90%	40%	100%	70%	90%	30%	–	–	–	–	–	–	–	–	–
O=C(Nc1ccccc1)c1cc[n+](CCS(=O)(=O)[O-])nc1 [Compound A7]	20%	10%	90%	30%	20%	100%	40%	60%	20%	–	–	–	–	–	–	–	–	–
CC(C)(C)NC(=O)c1cc[n+](CCC(=O)O)nc1 [Compound A15]	90%	30%	100%	100%	90%	100%	100%	90%	70%	–	–	–	–	–	–	–	–	–
CN(NC(=O)c1cc[n+](CCC(=O)O)nc1)C(=O)OC(C)(C)C.O=C([O-])C(F)(F)F [Compound A72]	–	–	–	–	–	–	–	–	–	40	20	20	20	20	100	30	20	20
